From patent US20230046728A1, “TECHNOLOGIES USEFUL FOR ASSESSING PERMEABILITY” (FOG PHARMACEUTICALS, INC., priority 2019, published 2023) come the findings set out here.

The data set has as its system Expi293 cells transfected with His-Halotag. The data set is described as follows: Library cell penetration assay, cell crash method (Example 6). In kind it is in vitro ADME, human. Here is the method:
Animal cells (e.g., Expi293 cells or human HEK 293 cells) were seeded in tissue culture plates and cultured in Opti-MEM media. The cells were set in PETG flasks at a concentration of 6×10^5 cells/mL and a volume of 30 mL. The cell viability was checked to be above 90-93%. The flasks were placed in a shaking incubator at 300 rpm in 8% CO2.
After 24 hours of incubation, for each flask, one 1.5-mL Lo-bind tube and one 2-mL Lo-Bind tube were prepared. In the 1.5-mL tube, 30 μg of polyhistidine-tagged halotag (His-Halotag) plasmid and Opti-MEM media were added to provide a 1-mL mixture. In the 2-mL Lo-Bind tube, 60 μL of ExpiFectamine and 940 μL of Opti-MEM were added. After 5 minutes, the plasmid/Opti-MEM mixture was added to the ExpiFectamine/Opti-MEM mixture. The combined mixture was placed in an incubator at room temperature for 20 minutes, which was subsequently added to the flask.
After 48 hours of transfection, the transfected cells were checked for viability (90% or higher). The transfected cells were transferred to a protein Lo-Bind Eppendorf 96-well deep well plate (1000 μL), where each well contained 1 million cells in 500 μL of Expi293 media.
Solutions of candidate compounds, either individual peptides or peptides from a peptide library (DPLs), were received at a stock concentration of 10 mM and diluted in DMSO and kept in a “Source Plate”. For DPLs, the peptide concentration in the “Source Plate” was 1 mM, whereas for individual peptides, the concentration was either 100 μM (for a final concentration of 100 nM) or 10 μM (for a final concentration of 10 nM). […] of the DPL or individual peptide solution was added in triplicates to the 96-well plate. The cells were kept in a shaking incubator at 300 rpm and 37 ° C., 8% CO2 overnight for about 18-20 hours.
The following day, one of the following two methods was performed: i) capture beads method or ii) cell crash method.
Cell crash method: the 96-well plate was placed in the centrifuge at 300 g for 5 minutes. 720 μL of the supernatant was removed. The cells were resuspended in residual 200 μL of media. The suspensions were transferred to a 96-well v-bottom plate, which was placed in the centrifuge at 300 g for an additional 5 minutes. All remaining media was removed. The cell pellets were washed with 200 μL of PBS, mixed and placed back in the centrifuge at 300 g and 4 ° C. for an additional 5 minutes. The supernatant was removed and 80 μL of PBS was added.
80 μL of eluted proteins/peptides from the capture beads method or the PBD solution from the cell crash method was transferred into a deepwell low binding plate (500 μL). 80 μL of ammonium hydroxide was added. The plate was kept on a shaker at 37 ° C. for 3 hours. The plate was dried in a speedvac overnight.
The following day, the dried cell pellet was resuspended in 70 μL of 47.5% water with 0.1% FA/47.5% ACN with 0.1% FA/10 μM pepmix (10 mM stock)/5% fresh DMSO. The mixture was let sit in the plate for 1 hour to allow the dissolution of the pellet. If the sample appeared cloudy, more resuspension solution was added (50 μL at a time). 50 μL was transferred directly to the mass spec plate and the plate was sealed with the 384-well plate seal.
Once all samples were added (including cell free), the plate was placed in an autosampler of a mass spectrometer. For the mass spectrometry analysis, methods from example 1 were employed.
Results from certain assessment were presented blow. Cell crash method was utilized. Mass Shifted Peptide Theoretical Max signal is signal of an agent comprising —OH obtained when using the DhaA to convert input agent comprising —Cl into product agent comprising —OH form without involving cells (multiple agents may be converted simultaneously; in some embodiments, can be performed library by library). In some embodiments, each library pool plus positive and negative references was tested in a single well, which in some cases contain about a million or so cells. […]

Setting [1] is: MS signal of unconverted —Cl agent from cells, library pool or individual peptide.
The mark [2] stands for this setting: MS signal of —OH agent from cells, library pool or individual peptide.
The mark [3] stands for this setting: Mass Shifted Peptide Signal in Cells divided by Mass Shifted Peptide Theoretical Max Signal, averaged across replicates.
[4] abbreviates: Mass Shifted Peptide Signal in Cells divided by Theoretical Max Signal per replicate pair, averaged.
Setting [5] is: library pool tested as mixture, MS signal of unconverted —Cl agent.
[6] abbreviates: library pool tested as mixture, MS signal of —OH agent.

In the case of `CNC(=O)[C@H](C)NC(=O)[C@H](C)NC(=O)[C@H](CO)NC(=O)[C@]1(C)CCCC=CCCCCCC[C@@](C)(NC(=O)[C@H](Cc2ccccc2)NC(=O)[C@@H](NC(=O)[C@H](CC(C)C)NC(=O)CCC(=O)NCCOCCOCCCCCCCl)[C@@H](C)O)C(=O)N[C@@H](CCC(=O)O)C(=O)N[C@@H](Cc2ccc(O)cc2)C(=O)N[C@@H](Cc2c[nH]c3ccccc23)C(=O)N[C@@H](C)C(=O)N[C@@H]([C@@H](C)O)C(=O)N[C@@H](CC2CCC2)C(=O)N1` [PEP000126, HaloTagO2-Leu-Thr-Phe-R8-Glu-Tyr-Trp-Ala-Thr-Cba-S5-Ser-Ala-Ala-NHMe], under setting [1], the “Peptide Signal in Cells (from cells; agents comprising —Cl)” value stood at 4E+06. Under setting [2], the “Mass Shifted Peptide Signal in Cells” value is on record as 4E+07. Further, the “Cell Penetration Score” value under setting [3] amounted to 561.

As for `CC(C)C[C@H](NC(=O)CCC(=O)NCCOCCOCCCCCCCl)C(=O)N[C@H](C(=O)N[C@@H](Cc1ccccc1)C(=O)N[C@]1(C)CCCCCCC=CCCC[C@@](C)(C(=O)N[C@@H](CO)C(=O)N[C@@H](C)C(=O)N[C@@H](C)C(N)=O)NC(=O)[C@H](CC2CCC2)NC(=O)[C@H]([C@@H](C)O)NC(=O)[C@H](C)NC(=O)[C@H](Cc2c[nH]c3ccccc23)NC(=O)[C@H](Cc2ccc(O)cc2)NC(=O)[C@H](CCC(=O)O)NC1=O)[C@@H](C)O` [PEP000123, HaloTagO2-Leu-Thr-Phe-R8-Glu-Tyr-Trp-Ala-Thr-Cba-S5-Ser-Ala-Ala-NH2], the “Peptide Signal in Cells (from cells; agents comprising —Cl)” value under setting [1] worked out at 1E+07. Also, the “Mass Shifted Peptide Signal in Cells” value under setting [2] is listed as 9E+07. The “Cell Penetration Score” value under setting [3] was determined as 1083.

In the case of `CC(C)C[C@H](NC(=O)CCC(=O)NCCOCCOCCCCCCCl)C(=O)N[C@H](C(=O)N[C@@H](Cc1ccccc1)C(=O)N[C@]1(C)CCCCCCC=CCCC[C@@](C)(C(=O)N[C@@H](CO)C(=O)N[C@@H](C)C(=O)N[C@@H](C)C(N)=O)NC(=O)[C@H](CC2CCC2)NC(=O)[C@H](CCC(N)=O)NC(=O)[C@H](C)NC(=O)[C@H](Cc2c[nH]c3ccccc23)NC(=O)[C@H](Cc2ccc(O)cc2)NC(=O)[C@H]([C@@H](C)O)NC1=O)[C@@H](C)O` [PEP000118, HaloTagO2-Leu-Thr-Phe-R8-Thr-Tyr-Trp-Ala-Gln-Cba-S5-Ser-Ala-Ala-NH2], the “Cell Penetration Score” value under setting [4] amounted to 536. In addition, under setting [5], the “Peptide Signal in Cells (from cells; agents comprising —Cl)” value is listed as 4E+07. Moreover, under setting [6], the “Mass Shifted Peptide Signal in Cells” value is recorded as 4E+07.

In the case of `CNC(=O)[C@H](C)NC(=O)[C@H](C)NC(=O)[C@H](CO)NC(=O)[C@]1(C)CCCC=CCCCCCC[C@@](C)(NC(=O)[C@H](Cc2ccccc2)NC(=O)[C@@H](NC(=O)[C@H](CC(C)C)NC(=O)CCC(=O)NCCOCCOCCCCCCCl)[C@@H](C)O)C(=O)N[C@@H](CCC(=O)O)C(=O)N[C@@H](Cc2ccc(O)cc2)C(=O)N[C@@H](Cc2c[nH]c3ccccc23)C(=O)N[C@@H](C)C(=O)N[C@@H](CCC(N)=O)C(=O)N[C@@H](CC2CCC2)C(=O)N1` (single isomer, unassigned) [PEP000120, HaloTagO2-Leu-Thr-Phe-R8-Glu-Tyr-Trp-Ala-Gln-Cba-S5-Ser-Ala-Ala-NHMe], the “Cell Penetration Score” value under setting [4] is recorded as 757. For the same compound, under setting [5], the “Peptide Signal in Cells (from cells; agents comprising —Cl)” value is given as 3E+05. The “Mass Shifted Peptide Signal in Cells” value under setting [6] was 4E+07.

`CNC(=O)[C@H](C)NC(=O)[C@H](C)NC(=O)[C@H](CO)NC(=O)[C@]1(C)CCCC=CCCCCCC[C@@](C)(NC(=O)[C@H](Cc2ccccc2)NC(=O)[C@@H](NC(=O)[C@H](CC(C)C)NC(=O)CCC(=O)NCCOCCOCCCCCCCl)[C@@H](C)O)C(=O)N[C@@H]([C@@H](C)O)C(=O)N[C@@H](Cc2ccc(O)cc2)C(=O)N[C@@H](Cc2c[nH]c3ccccc23)C(=O)N[C@@H](C)C(=O)N[C@@H](CCC(N)=O)C(=O)N[C@@H](CC2CCC2)C(=O)N1` [PEP000121, HaloTagO2-Leu-Thr-Phe-R8-Thr-Tyr-Trp-Ala-Gln-Cba-S5-Ser-Ala-Ala-NHMe]: under setting [4], the “Cell Penetration Score” value worked out at 401. Also, the “Peptide Signal in Cells (from cells; agents comprising —Cl)” value under setting [5] is 1E+07. Moreover, the “Mass Shifted Peptide Signal in Cells” value under setting [6] came out at 2E+07.

Turning to `CNC(=O)[C@H](C)NC(=O)[C@H](C)NC(=O)[C@H](CO)NC(=O)[C@]1(C)CCCC=CCCCCCC[C@@](C)(NC(=O)[C@H](Cc2ccccc2)NC(=O)[C@@H](NC(=O)[C@H](CC(C)C)NC(=O)CCC(=O)NCCOCCOCCCCCCCl)[C@@H](C)O)C(=O)N[C@@H](C)C(=O)N[C@@H](Cc2ccc(O)cc2)C(=O)N[C@@H](Cc2c[nH]c3ccccc23)C(=O)N[C@@H](C)C(=O)N[C@@H](CCC(N)=O)C(=O)N[C@@H](CC2CCC2)C(=O)N1` [PEP000119, HaloTagO2-Leu-Thr-Phe-R8-Ala-Tyr-Trp-Ala-Gln-Cba-S5-Ser-Ala-Ala-NHMe], the “Cell Penetration Score” value under setting [4] stood at 304. The “Peptide Signal in Cells (from cells; agents comprising —Cl)” value under setting [5] is recorded as 1E+07. The “Mass Shifted Peptide Signal in Cells” value under setting [6] came out at 2E+07.

Regarding `CNC(=O)[C@H](C)NC(=O)[C@H](C)NC(=O)[C@H](CO)NC(=O)[C@]1(C)CCCC=CCCCCCC[C@@](C)(NC(=O)[C@H](Cc2ccccc2)NC(=O)[C@@H](NC(=O)[C@H](CC(C)C)NC(=O)CCC(=O)NCCOCCOCCCCCCCl)[C@@H](C)O)C(=O)N[C@@H](CCC(=O)O)C(=O)N[C@@H](Cc2ccc(O)cc2)C(=O)N[C@@H](Cc2c[nH]c3ccccc23)C(=O)N[C@@H](C)C(=O)N[C@@H](C)C(=O)N[C@@H](CC2CCC2)C(=O)N1` [PEP000124, HaloTagO2-Leu-Thr-Phe-R8-Glu-Tyr-Trp-Ala-Ala-Cba-S5-Ser-Ala-Ala-NHMe], under setting [1], the “Peptide Signal in Cells (from cells; agents comprising —Cl)” value stood at 3E+06. For the same compound, the “Mass Shifted Peptide Signal in Cells” value under setting [2] amounted to 5E+07. For the same compound, the “Cell Penetration Score” value under setting [3] was found to be 745.

`CC(C)C[C@H](NC(=O)CCC(=O)NCCOCCOCCCCCCCl)C(=O)N[C@H](C(=O)N[C@@H](Cc1ccccc1)C(=O)N[C@]1(C)CCCCCCC=CCCC[C@@](C)(C(=O)N[C@@H](CO)C(=O)N[C@@H](C)C(=O)N[C@@H](C)C(N)=O)NC(=O)[C@H](CC2CCC2)NC(=O)[C@H](CCC(N)=O)NC(=O)[C@H](C)NC(=O)[C@H](Cc2c[nH]c3ccccc23)NC(=O)[C@H](Cc2ccc(O)cc2)NC(=O)[C@H](CCC(=O)O)NC1=O)[C@@H](C)O` [PEP000117, HaloTagO2-Leu-Thr-Phe-R8-Glu-Tyr-Trp-Ala-Gln-Cba-S5-Ser-Ala-Ala-NH2]: under setting [4], the “Cell Penetration Score” value was 1141. The “Peptide Signal in Cells (from cells; agents comprising —Cl)” value under setting [5] is 1E+05. For the same compound, the “Mass Shifted Peptide Signal in Cells” value under setting [6] is 8E+07.

Take `CC(C)C[C@H](NC(=O)CCC(=O)NCCOCCOCCCCCCCl)C(=O)N[C@H](C(=O)N[C@@H](Cc1ccccc1)C(=O)N[C@]1(C)CCCCCCC=CCCC[C@@](C)(C(=O)N[C@@H](CO)C(=O)N[C@@H](C)C(=O)N[C@@H](C)C(N)=O)NC(=O)[C@H](CC2CCC2)NC(=O)[C@H](C)NC(=O)[C@H](C)NC(=O)[C@H](Cc2c[nH]c3ccccc23)NC(=O)[C@H](Cc2ccc(O)cc2)NC(=O)[C@H](CCC(=O)O)NC1=O)[C@@H](C)O` [PEP000122, HaloTagO2-Leu-Thr-Phe-R8-Glu-Tyr-Trp-Ala-Ala-Cba-S5-Ser-Ala-Ala-NH2]: the “Cell Penetration Score” value under setting [4] is reported as 1188. In addition, under setting [5], the “Peptide Signal in Cells (from cells; agents comprising —Cl)” value is 8E+06. For the same compound, the “Mass Shifted Peptide Signal in Cells” value under setting [6] was determined as 9E+07.
